biological target: T1, hAR (Homo sapiens, UniProt P10275); assay: IR Binding Assay: displacement of 3H-DHT in COS-1 cells transfected with pRShAR; settings: not given
T1 construct: expressed in transfected cells; host or cells: COS-1 cells transiently transfected with pRShAR, pRS-β-Gal and pGEM
T1 sequence (P10275 1-920): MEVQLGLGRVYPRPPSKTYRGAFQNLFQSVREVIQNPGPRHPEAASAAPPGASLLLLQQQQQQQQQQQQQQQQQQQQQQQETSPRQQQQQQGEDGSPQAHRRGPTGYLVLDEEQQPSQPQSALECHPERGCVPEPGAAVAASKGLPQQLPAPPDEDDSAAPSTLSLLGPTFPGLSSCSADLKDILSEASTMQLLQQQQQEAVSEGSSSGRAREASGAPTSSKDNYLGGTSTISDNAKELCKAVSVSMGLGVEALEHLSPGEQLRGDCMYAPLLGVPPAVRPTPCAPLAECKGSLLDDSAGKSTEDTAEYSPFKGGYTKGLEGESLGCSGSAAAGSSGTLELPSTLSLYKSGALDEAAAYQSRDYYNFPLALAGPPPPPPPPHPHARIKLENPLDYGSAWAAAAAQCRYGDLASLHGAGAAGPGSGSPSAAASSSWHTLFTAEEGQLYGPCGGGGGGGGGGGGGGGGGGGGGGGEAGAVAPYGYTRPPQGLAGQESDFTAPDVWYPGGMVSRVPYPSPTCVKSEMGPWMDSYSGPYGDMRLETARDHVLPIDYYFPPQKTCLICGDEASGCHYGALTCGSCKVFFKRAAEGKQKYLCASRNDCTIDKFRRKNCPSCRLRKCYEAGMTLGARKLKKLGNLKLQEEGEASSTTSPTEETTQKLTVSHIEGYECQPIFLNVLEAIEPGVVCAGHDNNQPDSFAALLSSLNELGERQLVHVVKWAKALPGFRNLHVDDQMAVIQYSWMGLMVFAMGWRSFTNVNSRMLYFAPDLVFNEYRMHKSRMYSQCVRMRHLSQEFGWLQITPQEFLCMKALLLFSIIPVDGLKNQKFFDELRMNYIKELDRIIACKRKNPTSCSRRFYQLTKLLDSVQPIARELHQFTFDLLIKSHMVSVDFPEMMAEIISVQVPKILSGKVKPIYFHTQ
Method: COS-1 cells in 96-well microtiter plates containing DMEM-10% FBS were transfected using standard techniques with plasmids pRShAR (2 ng/well), pRS-β-Gal (50 ng/well) and pGEM (48 ng/well). Six hours after transfection, media was removed, the cells were washed with PBS and fresh media was added. Twenty-four hours later, the media was changed to serum free DMEM and the cells were incubated for twenty-four hours.
Three replicates were used for each sample.
After three hours at 37° C., aliquots of media from each well of both test plates and control plates were removed to estimate the amount of free ^3H-DHT. The remaining media was removed, the cells were washed three times with PBS, and cells were lysed with a Triton X-100-based buffer. The lysates were assayed for amount of bound ^3H-DHT and β-Gal activity using a scintillation counter and spectrophotometer, respectively.
Determination of Kd for ^3H-DHT. Total binding was defined as binding of ^3H-DHT in the absence of 100 molar excess of unlabeled DHT in the control plate. […] binding was defined as binding of ^3H-DHT in the presence of 100 molar excess of unlabeled DHT in the control plate. Specific binding was defined as the difference between the total binding and the nonspecific binding, normalized by the β-Gal rate. Specific binding was used in Scatchard analysis to determine the Kd for ^3H-DHT.
Test Compounds. To determine binding affinity (Ki) for test compounds, the data from each concentration of test compound was calculated as a percentage of the signal for the sample with no test compound. […] The Ki values were determined by the Cheng-Prusoff equation, where: […]

`COc1cccc2c(=O)oc3c(ccc4[nH]c(=O)cc(C(F)(F)F)c43)c12` [Compound 126, 10-Methoxy-4-trifluoromethyl-1H-5-oxa-1-azachrysene-2,6-dione] and `COc1cccc2c1-c1ccc3[nH]c(=O)cc(C(F)(F)F)c3c1CO2` [Compound 113] fall in the same range of Ki: 10 to 50 nM for the first, 10 to 50 nM for the second.

`Cc1cc(=O)[nH]c2ccc3c4c(CO)cccc4oc(=O)c3c12` [Compound 124, 10-Hydroxymethyl-4-methyl-1H-6-oxa-1-aza-chrysene-2,5-dione] and `COc1c(OC(=O)C(C)(C)C)ccc2oc(=O)c3c(ccc4[nH]c(=O)cc(C)c43)c12` [Compound 102, 2,2-Dimethylpropionic acid 10-methoxy-4-methyl-2,5-dioxo-2,5-dihydro-1H-6-oxa-1-aza-chrysen-9-yl ester] fall in the same range of Ki: 10 to 50 nM for the first, 10 to 50 nM for the second.

Compared with `COc1cccc2c1-c1ccc3[nH]c(=O)cc(C(F)(F)F)c3c1C(O)O2` (racemic) [Compound 114, (±)-5-Hydroxy-10-methoxy-4-trifluoromethyl-1H,5H-6-oxa-1-aza-chrysen-2-one], `COc1cccc2c1-c1ccc3[nH]c(=O)cc(C(F)(F)F)c3c1OC2` [Compound 127, 10-Methoxy-4-trifluoromethyl-1,6-dihydro-5-oxa-1-azachrysen-2-one] is lower in Ki: greater than 50 nM for the first, 10 to 50 nM for the second. The second binds more tightly here.

`O=c1cc(C(F)(F)F)c2c3c(ccc2[nH]1)-c1c(O)cccc1OC3` [Compound 115, 10-Hydroxy-4-trifluoromethyl-1H,5H-6-oxa-1-aza-chrysen-2-one] and `CC(C)(C)C(=O)Oc1cccc2c1-c1ccc3[nH]c(=O)cc(C(F)(F)F)c3c1CO2` [Compound 116, 2,2-Dimethyl-propionic acid 2-oxo-4-trifluoromethyl-2,5-dihydro-1H-6-oxa-1-aza-chrysen-10-yl ester] cannot be ordered by Ki: less than 10 nM for the first, less than 10 nM for the second.

`COc1cccc2c1-c1ccc3[nH]c(=O)cc(C)c3c1C(C)O2` (racemic) [Compound 107, (±)-10-Methoxy-4,5-dimethyl-1H,5H-6-oxa-1-aza-chrysen-2-one] showed a Ki greater than 50 nM.

same assay, conditions: 1 nM 3H-DHT, transfected COS-1 cells, 3 hours at 37° C., Cheng-Prusoff; read-out: Binding to hAR (Ki value ranges)

Going from `COc1cccc2oc(=O)c3c(C)c([N+](=O)[O-])ccc3c12` [Compound 130, 1-Methoxy-7-methyl-8-nitrobenzo[c]coumarin] to `Cc1c([N+](=O)[O-])ccc2c1c(=O)oc1cccc(O)c12` [Compound 129, 1-Hydroxy-7-methyl-8-nitrobenzo[c]coumarin], the Ki falls from greater than 50 nM to less than 10 nM. The second binds more tightly here.

First: COc1cccc2c1-c1ccc3[nH]c(=O)cc(C)c3c1CO2 [Compound 109, 10-Methoxy-4-methyl-1H,5H-6-oxa-1-azachrysen-2-one]
Second: COc1c(O)ccc2c1-c1ccc3[nH]c(=O)cc(C)c3c1CO2 [Compound 119, 9-Hydroxy-10-methoxy-4-methyl-1H,5H-6-oxa-1-aza-chrysen-2-one]
The Ki of the first is higher: greater than 50 nM for the first, less than 10 nM for the second. The second binds more tightly here.

`COc1c(O)ccc2c1-c1ccc3[nH]c(=O)cc(C)c3c1C(OC)O2` (racemic) [Compound 118, (±)-9-Hydroxy-5,10-dimethoxy-4-methyl-1H,5H-6-oxa-1-aza-chrysen-2-one] and `COc1cccc2c1-c1ccc3[nH]c(=O)cc(C)c3c1C(O)O2` (racemic) [Compound 105, (±)-5-Hydroxy-10-methoxy-4-methyl-1H,5H-6-oxa-1-aza-chrysen-2-one] cannot be ordered by Ki: greater than 50 nM for the first, greater than 50 nM for the second.

Going from `COC(=O)c1cccc2oc(=O)c3c(ccc4[nH]c(=O)cc(C)c43)c12` [Compound 111, 4-Methyl-2,5-dioxo-2,5-dihydro-1H-6-oxa-1-aza-chrysene-10-carboxylic acid methyl ester] to `Cc1cc(=O)[nH]c2ccc3c4c(OC(=O)C(C)(C)C)cccc4oc(=O)c3c12` [Compound 104, 2,2-Dimethylpropionic acid 4-methyl-2,5-dioxo-2,5-dihydro-1H-6-oxa-1-aza-chrysen-10-yl ester], the Ki falls from greater than 50 nM to less than 10 nM. The second binds more tightly here.

`CCOc1ccc2oc(=O)c3c(ccc4c3c(C)cc(=O)n4CC)c2c1OC` [Compound 122, 9-Ethoxy-1-ethyl-10-methoxy-4-methyl-1H-6-oxa-1-aza-chrysene-2,5-dione] and `CCOc1ccc2oc(=O)c3c(ccc4[nH]c(=O)cc(C)c43)c2c1OC` [Compound 121, 9-Ethoxy-10-methoxy-4-methyl-1H-6-oxa-1-aza-chrysene-2,5-dione] cannot be ordered by Ki: greater than 50 nM for the first, greater than 50 nM for the second.

`COc1cccc2c1-c1ccc3[nH]c(=O)cc(C)c3c1C(C)(OC)O2` (racemic) [Compound 108, (±)-5,10-Dimethoxy-4,5-dimethyl-1H,5H-6-oxa-1-azachrysen-2-one] and `COc1cccc2c1-c1ccc3[nH]c(=O)cc(C)c3c1C(=O)OC2` [Compound 123, 4-Methoxy-10-methyl-7,13-dihydro-12-oxa-7-aza-benzo[3,4]cyclohepta[1,2-α]-naphthalene-8,11-dione] cannot be ordered by Ki: greater than 50 nM for the first, greater than 50 nM for the second.

First: COc1c(OC(C)C)ccc2oc(=O)c3c(ccc4[nH]c(=O)cc(C)c43)c12 [Compound 120, 9-Isopropoxy-10-methoxy-4-methyl-1H-6-oxa-1-aza-chrysene-2,5-dione]
Second: COc1c(O)ccc2oc(=O)c3c(ccc4[nH]c(=O)cc(C)c43)c12 [Compound 117, 9-Hydroxy-10-methoxy-4-methyl-1H-6-oxa-1-aza-chrysene-2,5-dione]
The Ki of the first is higher: 10 to 50 nM for the first, less than 10 nM for the second.

With `COc1ccc2oc(=O)c3c(ccc4[nH]c(=O)cc(C)c43)c2c1` [Compound 103, 9-Methoxy-4-methyl-1H-6-oxa-1-aza-chrysene-2,5-dione] the Ki was greater than 50 nM.

— patent publication US20090203725A1, “Androgen Receptor Modulator Compounds and Methods” (priority 2005, published 2009)
